According to publication PMC8675330 (Frontiers in Pharmacology, 2021):
Structures can show the parent of a compound that is named as a salt. Where two headings read alike, the source gives them in different places. Marks after values point to notes of the source that are not given here. Values belong to the compound of their own block, whether it stands above or below them.

Columns and labels:
[1] = Solubility of escitalopram and paroxetine in liquid lipids; assay type: physicochemical; details: 24 h stirring at 25°C, n = 3, mean ± SD; for solubility at 24 h: oil or lipid, thermodynamic from solid
Method: Briefly, 0.5 g of solid lipid Precirol® ATO 5 was melted in a controlled temperature water bath at 65°C. […] Regarding liquid lipids (oleic acid, Labrasol®, Labrafac™ PG, Lauroglycol™ 90, and Miglyol® 812 N), both drugs were dispersed in screw-capped tubes with the liquid compounds (0.5 ml each) and kept under mechanical stirring for 24 h at 25°C. […] An aliquot of the supernatant was diluted with the mobile phase, filtered through a 0.22-µm membrane, and analyzed. […] The HPLC-DAD apparatus and data acquisition were controlled by using Lab Solutions Software (Shimadzu Corporation, Tokyo, Japan). […] The mobile phase was composed of 20 mM phosphate buffer (pH 3.8 adjusted with orthophosphoric acid) and acetonitrile (80:20, v/v) pumped at a flow rate of 1.0 ml/min.

[2] = In vivo pharmacokinetics in plasma, brain and lung after IV, IN and IN + BorNLC co-administration; set-up: species or system CD-1 mice; details: for Cmax / Tmax / Kp / AUC(0-t): CD-1, mouse
Method: Healthy adult CD-1 mice (25–30 g) were acquired from Charles River Laboratories (L’Arbresle, France) and accommodated in a relative humidity of 55 ± 5%, a controlled temperature of 20 ± 2°C, and reversed 12 h light–dark cycles. The studies were always performed in the dark phase (active phase between 08h00 and 20h00). A period of at least 7 days was considered for the animals to become familiarized with the environment. Animals had ad libitum access to food (4RF21, Mucedola®, Italy) and tap water during the entire experiment period.
Before treatment, animals were anesthetized by intraperitoneal administration of a mixture of ketamine (100 mg/kg) and xylazine (10 mg/kg) to keep them immobile during IN or IV administration. Animals were randomly divided into 3 groups (n = 28) and subdivided into 7 time-points (n = 4). […] Briefly, Pluronic F-127 (18%, w/v) and Carbopol 974P (0.2%, w/v) were added to cold water, since the first guarantees the thermoreversible characteristic of the nasal gel ([Swamy and Abbas, 2012]) and the second increases the bioadhesive properties of the gel, thus increasing the residence time in the nasal cavity and improving the central delivery of antidepressant drugs. […] Anesthetized animals were instilled with 14–25 µl (2.38 mg/kg) of the gel with a polyurethane tube (24G x 19 mm) attached to a microliter syringe. Formulation delivery was performed into one of the nostrils, where the tube was inserted about 10 mm deep.
Animals were sacrificed by cervical dislocation and decapitation at 5, 15, 30, 60, 120, 240, and 480 min after administration, and heparinized tubes were used for blood collection. Blood samples were centrifuged at 1,252 g for 10 min at 4°C, and plasma supernatants were analyzed by HPLC-DAD. The mice brain and lungs were quickly removed and gently cleaned with a sterile gauze humidified with saline to remove adherent surface blood. Then, these organs were weighed and homogenized in NaCl 0.9% (3 ml/g of tissue) using a tissue homogenizer with a Teflon® pestle from Thomas Scientific (Swedesboro, NJ, United States).
Briefly, 300 μl of methanol were added to 200 μl of plasma, 200 μl of lung homogenate, or 400 μl of brain homogenate for protein precipitation. After two extractions with 700 μl of n-hexane:alcohol isoamyl (98:2, v/v) mixture, organic phases were evaporated. Last, following reconstitution with 100 μl of a mixture of 20 mM phosphate buffer pH 3.8 and acetonitrile (70:30, v/v), the plasma and lung homogenate samples were transferred to a 0.22-μm Costar® Spin-X® centrifugal filter (Corning, Inc., NY, United States) and centrifuged at 12,100 g for 3 min. All final samples were injected (20 µl) into the HPLC-DAD system, in accordance with the analytical conditions described in section 2.2.1. The detection wavelength to quantify the IS was set at 290 nm.
The remaining pharmacokinetic parameters were estimated by non-compartmental analysis using WinNonlin® version 6.4 software (Certara, Princeton, NJ). Plasma and tissue concentrations below the lower limit of quantification (LLOQ) of the analytical method were considered zero for the pharmacokinetic data analysis.
For both drugs and in all matrices, the area under the concentration–time curve from time zero (AUC) to the time of the last measurable drug concentration (AUCt) was calculated by the linear trapezoidal rule.
To evaluate drug distribution into the brain and lungs after administration, the ratios were determined based on the quotient AUCt(tissue)/AUCt(plasma). The drug targeting efficiency (DTE) was calculated following Eq. 6: DTE(%)=(AUCt(brain)/AUCt(plasma))IN/(AUCt(brain)/AUCt(plasma))IV×100 (6)
Finally, to evaluate the direct drug passage from the nose to the brain, the direct transport percentage (DTP) was determined applying Eq. 7: DTP(%)=AUCt(brain) IN−[(AUCt(brain) IV/AUCt(plasma) IV)×AUCt(plasma) IN]/AUCbrain IN×100 (7)

[3] = set-up: method as in Kreilgaard et al., 2008; details: single subcutaneous injection, three doses (escitalopram 0.240-3.90 mg/kg; paroxetine 0.270-4.40 mg/kg); ref Kreilgaard et al., 2008; cited from earlier work
P-glycoprotein (P-gp) = details: cited from earlier work
[4] = significant first-pass metabolism; no reference given; cited from earlier work
[5] = Lauroglycol 90 (liquid lipid), in Lauroglycol 90
[6] = oleic acid (liquid lipid), in oleic acid
[7] = brain, inhaled or intranasal, 2.38 mg/kg
[8] = lung, inhaled or intranasal, 2.38 mg/kg
[9] = plasma, inhaled or intranasal, 2.38 mg/kg
[10] = inhaled or intranasal, paroxetine, brain, IN free drug, 2.38 mg/kg
[11] = inhaled or intranasal, paroxetine, lung, IN free drug, 2.38 mg/kg
[12] = inhaled or intranasal, paroxetine, plasma, IN free drug, 2.38 mg/kg
[13] = paroxetine, brain, IV free drug, 2.38 mg/kg
[14] = paroxetine, lung, IV free drug, 2.38 mg/kg
[15] = paroxetine, plasma, IV free drug, 2.38 mg/kg
[16] = paroxetine, IN free drug vs IV, 2.38 mg/kg

solubility at 24 h ([1]; Labrafac PG (liquid lipid), in Labrafac PG, n.d. = not detected): 1340 ± 1120 µg/mL
solubility at 24 h ([1]; Labrasol (liquid lipid), in Labrasol): 14700 ± 14000 µg/mL
solubility at 24 h [1, 5]: 6910 ± 130 µg/mL
solubility at 24 h [1, 6]: 840 ± 120 µg/mL
Cmax [2, 7]: 133 ng/g
Tmax [2, 7]: 60 min
Cmax ([2]; brain, iv, 2.38 mg/kg): 511 ng/g
Tmax ([2]; brain, iv, 2.38 mg/kg): 15 min
Kp ([2]; brain/plasma, iv, 2.38 mg/kg, read-out: AUCtbrain/AUCtplasma): 0.871
Kp ([2]; brain/plasma, other: intranasal (IN), 2.38 mg/kg, read-out: AUCtbrain/AUCtplasma): 0.86
Cmax [2, 8]: 2310 ng/g
Tmax [2, 8]: 30 min
Cmax ([2]; lung, iv, 2.38 mg/kg): 1020 ng/g
Tmax ([2]; lung, iv, 2.38 mg/kg): 60 min
Kp ([2]; lung/plasma, iv, 2.38 mg/kg, read-out: AUCtlung/AUCtplasma): 2.45
Kp ([2]; lung/plasma, other: intranasal (IN), 2.38 mg/kg, read-out: AUCtlung/AUCtplasma): 10.6
AUC(0-t) [2, 9]: 507 ng·h/mL
Cmax [2, 9]: 550 ng/mL
Tmax [2, 9]: 5 min
AUC(0-t) ([2]; plasma, iv, 2.38 mg/kg): 1150 ng·h/mL
Cmax ([2]; plasma, iv, 2.38 mg/kg): 482 ng/mL
Tmax ([2]; plasma, iv, 2.38 mg/kg): 5 min
AUCt ([2]; escitalopram, brain, IN free drug, 2.38 mg/kg): 26.2 ^c µg.min/g
AUCt ([2]; escitalopram, brain, IV free drug, 2.38 mg/kg): 59.8 ^c µg.min/g
AUCt ([2]; escitalopram, lung, IN free drug, 2.38 mg/kg): 321 ^c µg.min/g
AUCt ([2]; escitalopram, lung, IN free drug, 2.38 mg/kg, listed as escitalopram): 168 µg·min/g
AUCt ([2]; escitalopram, lung, IV free drug, 2.38 mg/kg): 168 ^c µg.min/g
AUCt ([2]; escitalopram, lung, IV free drug, 2.38 mg/kg, listed as escitalopram): 321 µg·min/g
lung Cmax after free drug IN administration, times superior to BorNLC IN ([2]; escitalopram, lung, free IN vs BorNLC IN): 3.8 times
lung Cmax after free drug IN administration, times superior to IV ([2]; escitalopram, lung, free IN vs IV): 2.3 times
SMILES: CN(C)CCC[C@@]1(c2ccc(F)cc2)OCc2cc(C#N)ccc21 [Escitalopram, escitalopram oxalate]
tmax in the plasma [3]: 3.00 to 5.40 min

solubility at 24 h [1, 5]: 13800 ± 1260 µg/mL
solubility ([1]; in Labrasol): 24000 ± 30500 µg/mL
solubility at 24 h [1, 6]: 1070 ± 580 µg/mL
Kp ([2]; brain/plasma, iv, 2.38 mg/kg, paroxetine, IV free drug, 2.38 mg/kg, read-out: AUCtbrain/AUCtplasma): 0.35
Kp ([2]; brain/plasma, other: intranasal (IN), 2.38 mg/kg, paroxetine, IN free drug, 2.38 mg/kg, read-out: AUCtbrain/AUCtplasma): 0.82
Cmax [2, 10]: 283 ng/g
Tmax [2, 10]: 120 min
Cmax [2, 11]: 2820 ng/g
Tmax [2, 11]: 60 min
AUC(0-t) [2, 12]: 1390 ng·h/mL
Cmax [2, 12]: 696 ng/mL
Kp ([2]; lung/plasma, iv, 2.38 mg/kg, paroxetine, IV free drug, 2.38 mg/kg, read-out: AUCtlung/AUCtplasma): 2.63
Kp ([2]; lung/plasma, other: intranasal, 2.38 mg/kg, paroxetine, IN free drug, 2.38 mg/kg, read-out: AUCtlung/AUCtplasma): 8.4
Tmax [2, 9]: 5 min
Tmax ([2]; plasma, iv, 2.38 mg/kg): 5 min
Cmax [2, 13]: 233 ng/g
Tmax [2, 13]: 120 min
Cmax [2, 14]: 1010 ng/g
Tmax [2, 14]: 30 min
AUC(0-t) [2, 15]: 1630 ng·h/mL
Cmax [2, 15]: 820 ng/mL
DTE (drug targeting efficiency) [2, 16]: 232%
DTP (direct transport percentage) [2, 16]: 56.9%
AUCtbrain/AUCtplasma ([2]; paroxetine, IN free drug, 2.38 mg/kg): 0.821
AUCtbrain/AUCtplasma ([2]; paroxetine, IV free drug, 2.38 mg/kg): 0.354
AUCt ([2]; paroxetine, brain, IN free drug, 2.38 mg/kg): 68.2 ^c µg min/g
higher brain exposure (given by AUCt) than that of IV injection ([2]; paroxetine, brain, IN vs IV): 49%
AUCt [2, 13]: 34.6 ^c µg min/g
AUCt ([2]; paroxetine, lung, IN free drug, 2.38 mg/kg): 699 ^c µg min/g
AUCt [2, 14]: 257 ^c µg min/g
SMILES: Fc1ccc([C@@H]2CCNC[C@H]2COc2ccc3c(c2)OCO3)cc1 [Paroxetine, Paroxetine hydrochloride]
P-gp IC50 relative to therapeutic plasma concentrations (P-glycoprotein (P-gp); IC50 higher than therapeutic plasma concentrations, ref Hiemke et al., 2018): about 150 fold
P-gp inhibition IC50 (P-glycoprotein (P-gp); in vitro, ref Feng et al., 2008): 10 µg/mL
oral bioavailability [4]: 30 to 60%
tmax in the plasma [3]: 4.80 to 5.40 min
